Publication PMC7587962, “Evaluation of Cytotoxicity and α-Glucosidase Inhibitory Activity of Amide and Polyamino-Derivatives of Lupane Triterpenoids” (Molecules, 2020)
Where two headings read alike, the source gives them in different places.

Key:
Ovarian Cancer subpanel = experiment: NCI-60 screen, subpanel Ovarian Cancer
NCI-H322M = experiment: NCI-60 SRB screen: non-small cell lung cancer NCI-H322M; format: cell-based, human
CAKI-1 = experiment: NCI-60 SRB screen: renal cancer CAKI-1; format: cell-based, human; settings: CAKI-1
SW-620 = experiment: NCI-60 SRB screen: colon cancer SW-620; format: cell-based; settings: Homo sapiens, 48 h, SW-620
Leukemia subpanel = experiment: NCI-60 screen, subpanel Leukemia
HCC-2998 = experiment: NCI-60 SRB screen: colon cancer HCC-2998; format: cell-based, human; settings: HCC-2998
SK-MEL-2 = experiment: NCI-60 SRB screen: melanoma SK-MEL-2; format: cell-based, human; settings: SK-MEL-2
NSCL cancer subpanel = experiment: NCI-60 screen, subpanel NSCL cancer
T-47D = experiment: NCI-60 SRB screen: breast cancer T-47D; format: cell-based, human; settings: T-47D
K-562 = experiment: NCI-60 SRB screen: leukemia K-562; format: cell-based, human; settings: K-562
NCI-H23 = experiment: NCI-60 SRB screen: non-small cell lung cancer NCI-H23; format: cell-based, human; settings: NCI-H23
OVCAR-4 = experiment: NCI-60 SRB screen: ovarian cancer OVCAR-4; format: cell-based; settings: Homo sapiens; OVCAR-4; five concentrations, 48 h, SRB; read-out: GI50
SK-MEL-28 = experiment: NCI-60 SRB screen: melanoma SK-MEL-28; format: cell-based, human; settings: SK-MEL-28
BT-549 = experiment: NCI-60 SRB screen: breast cancer BT-549; format: cell-based, human; settings: BT-549
SF-539 = experiment: NCI-60 SRB screen: CNS cancer SF-539; format: cell-based, human; settings: SF-539
UO-31 = experiment: NCI-60 SRB screen: renal cancer UO-31; format: cell-based, human; settings: UO-31
HT29 = experiment: NCI-60 SRB screen: colon cancer HT29; format: cell-based; settings: Homo sapiens, HT29
SNB-19 = experiment: NCI-60 SRB screen: CNS cancer SNB-19; format: cell-based, human; settings: SNB-19
SK-OV-3 = experiment: NCI-60 SRB screen: ovarian cancer SK-OV-3; format: cell-based, human; settings: SK-OV-3
HCT-15 = experiment: NCI-60 SRB screen: colon cancer HCT-15; format: cell-based, human; settings: HCT-15
KM12 = experiment: NCI-60 SRB screen: colon cancer KM12; format: cell-based, human; settings: KM12
[1] = system: 60 human tumor cell lines; experiment: cells
Melanoma subpanel = experiment: NCI-60 screen, subpanel Melanoma
EKVX = experiment: NCI-60 SRB screen: non-small cell lung cancer EKVX; format: cell-based, human
Renal Cancer subpanel = experiment: NCI-60 screen, subpanel Renal Cancer
A549/ATCC = experiment: NCI-60 SRB screen: non-small cell lung cancer A549/ATCC; format: cell-based, human; settings: A549/ATCC
NCI-H226 = experiment: NCI-60 SRB screen: non-small cell lung cancer NCI-H226; format: cell-based, human; settings: NCI-H226
MALME-3M = experiment: NCI-60 SRB screen: melanoma MALME-3M; format: cell-based, human; settings: MALME-3M
PC-3 = experiment: NCI-60 SRB screen: prostate cancer PC-3; format: cell-based, human; settings: PC-3
HOP-62 = experiment: NCI-60 SRB screen: non-small cell lung cancer HOP-62; format: cell-based, human; settings: HOP-62
SF-268 = experiment: NCI-60 SRB screen: CNS cancer SF-268; format: cell-based, human; settings: SF-268
NCI-H522 = experiment: NCI-60 SRB screen: non-small cell lung cancer NCI-H522; format: cell-based, human; settings: NCI-H522
MDA-MB-468 = experiment: NCI-60 SRB screen: breast cancer MDA-MB-468; format: cell-based, human
786-0 = experiment: NCI-60 SRB screen: renal cancer 786-0; format: cell-based, human; settings: 786-0
[2] = Homo sapiens, five concentrations, 48 h, SRB, read-out: GI50

In the case of `C=C(C)[C@@H]1CC[C@]2(C(=O)NCCNCCNCCN)CC[C@]3(C)[C@H](CC[C@@H]4[C@@]5(C)CC[C@H](O)C(C)(C)[C@@H]5CC[C@]43C)[C@@H]12` [Compound 6], the “MID b, average sensitivity of all cell line of particular subpanel” value (shortened to “MID b, average sensitivity”) (Ovarian Cancer subpanel) is reported as 14.10 µM, the “Selectivity, ratio MID a: MID b” value (Ovarian Cancer subpanel) is reported as 0.86 and the GI50 (NCI-H322M; [2]) is reported as 15.1 µM. For the same compound, the “Percentage Cell Growth” value (NCI-H322M; single dose 10 µM) was −83.84%, the “Percentage Cell Growth” value (CAKI-1; single dose 10 µM) was −93.59% and the GI50 (CAKI-1; [2]) was 5.92 µM. For the same compound, the activity at 10 µM (SW-620; single dose 10 µM, read-out: Percentage Cell Growth) was -86.7%, the GI50 (SW-620; five concentrations, SRB, read-out: GI50) was 14.7 µM and the “MID b, average sensitivity” value (Leukemia subpanel) was 6.64 µM. For the same compound, the “Selectivity, ratio MID a: MID b” value (Leukemia subpanel) was 1.83, the “Percentage Cell Growth” value (HCC-2998; single dose 10 µM) was −90.36% and the GI50 (HCC-2998; [2]) was 14.1 µM. The GI50 (SK-MEL-2; [2]) was 16.8 µM, the “Percentage Cell Growth” value (SK-MEL-2; single dose 10 µM) was −65.39% and the “MID b, average sensitivity” value (NSCL cancer subpanel) was 11.88 µM. The “Selectivity, ratio MID a: MID b” value (NSCL cancer subpanel) was 1.02, the GI50 (T-47D; Homo sapiens, T47D, five concentrations, 48 h, SRB, read-out: GI50) was 10.9 µM and the “Percentage Cell Growth” value (T-47D; single dose 10 µM) was −32.56%. The GI50 (K-562; Homo sapiens, K562, five concentrations, 48 h, SRB, read-out: GI50) was 6.9 µM, the “Percentage Cell Growth” value (K-562; single dose 10 µM) was −15.78% and the GI50 (NCI-H23; [2]) was 14.7 µM. For the same compound, the “Percentage Cell Growth” value (NCI-H23; single dose 10 µM) was −51.70%, the GI50 (OVCAR-4) was 14.1 µM and the GI50 (SK-MEL-28; [2]) was 16 µM. The “Percentage Cell Growth” value (SK-MEL-28; single dose 10 µM) was −98.68%, the “Percentage Cell Growth” value (BT-549; single dose 10 µM) was −51.94% and the GI50 (BT-549; [2]) was 15 µM. The GI50 (SF-539; [2]) was 11.1 µM, the “Percentage Cell Growth” value (SF-539; single dose 10 µM) was −100.00% and the GI50 (UO-31; [2]) was 11.7 µM. For the same compound, the “Percentage Cell Growth” value (UO-31; single dose 10 µM) was −100.00%, the activity at 10 µM (HT29; HT-29, 48 h, single dose 10 µM, read-out: Percentage Cell Growth) was -39.6% and the GI50 (HT29; HT-29, five concentrations, 48 h, SRB, read-out: GI50) was 14.6 µM. The GI50 (SNB-19; [2]) was 12.9 µM, the “Percentage Cell Growth” value (SNB-19; single dose 10 µM) was −74.52% and the GI50 (SK-OV-3; [2]) was 17.5 µM. The “Percentage Cell Growth” value (SK-OV-3; single dose 10 µM) was −14.17%, the “Percentage Cell Growth” value (HCT-15; single dose 10 µM) was −24.81% and the GI50 (HCT-15; [2]) was 11.5 µM. The GI50 (KM12; [2]) was 6.81 µM, the “Percentage Cell Growth” value (KM12; single dose 10 µM) was −52.23% and the GI50 ([1]; read-out: GI50 ranges against all panels of NCI60) was 2.95 to 20.1 µM. For the same compound, the GI50 ([1]; read-out: MID a, average sensitivity of all cell line (GI50-MID)) was 12.2 µM, the “MID b, average sensitivity” value (Melanoma subpanel) was 13.58 µM and the “Selectivity, ratio MID a: MID b” value (Melanoma subpanel) was 0.89. For the same compound, the GI50 (EKVX; [2]) was 10.5 µM, the “Percentage Cell Growth” value (EKVX; single dose 10 µM) was −11.36% and the “MID b, average sensitivity” value (Renal Cancer subpanel) was 13.02 µM. The “Selectivity, ratio MID a: MID b” value (Renal Cancer subpanel) was 0.93, the “Percentage Cell Growth” value (A549/ATCC; single dose 10 µM) was −64.63% and the GI50 (A549/ATCC; [2]) was 4.97 µM. The GI50 (NCI-H226; [2]) was 15.5 µM, the “Percentage Cell Growth” value (NCI-H226; single dose 10 µM) was −23.56% and the GI50 (MALME-3M; [2]) was 14.6 µM. For the same compound, the “Percentage Cell Growth” value (MALME-3M; single dose 10 µM) was −100.00%, the GI50 (PC-3; [2]) was 2.95 µM and the “Percentage Cell Growth” value (PC-3; single dose 10 µM) was 1.07%. For the same compound, the “Percentage Cell Growth” value (HOP-62; single dose 10 µM) was −69.12%, the GI50 (HOP-62; [2]) was 16.5 µM and the GI50 (SF-268; [2]) was 13.5 µM. For the same compound, the “Percentage Cell Growth” value (SF-268; single dose 10 µM) was −30.99%, the GI50 (NCI-H522; [2]) was 10.3 µM and the “Percentage Cell Growth” value (NCI-H522; single dose 10 µM) was −57.83%. For the same compound, the GI50 (MDA-MB-468; [2]) was 8.88 µM, the “Percentage Cell Growth” value (MDA-MB-468; single dose 10 µM) was −48.60% and the “Percentage Cell Growth” value (786-0; single dose 10 µM) was −83.51%. The GI50 (786-0; [2]) was 12.4 µM.
